Experiment [1] has as its system TNF-α and IFN-γ. Nature of the experiment: cytokine concentrations in supernatant of LPS-stimulated macrophage (PEC) culture after oral administration to mice. It counts as in vivo, mouse. As to conditions: 1 g/kg oral for 1 week, C57/BL6 mice; PEC macrophages + LPS 100 ng/ml, 4 hours. On the procedure: (§1) The physiological activity assays were performed by forcibly administering 1 g/kg of a sample to 6-week age male C57/BL6 mice for 1 week by oral route. Spleen cells and peritoneal exudate cells (PEC) were collected after sacrificing the animals. They were cultivated and assayed TNF-α, IFN-γ, and IL-2.
PEC (peritoneal exudate cells) collected from mouse abdominal cavity with physiological saline were centrifuged, (1,000 rpm, 10 minutes) to collect cells, which were used as macrophages. To the macrophages LPS (lipopoly saccharide) was added at a final concentration of 100 ng/ml and the cells were cultivated. After 4 hours, TNF-α, IFN-γ, and IL-2 in the culture supernatant were assayed.
(§2) For both a) and b) above, a kit for assaying cytokine (Wako Pure Chemical Industries, Ltd.) was used.

Experiment [2] has as its system TNF-α, IFN-γ and IL-2. Nature of the experiment: cytokine concentrations in supernatant of ConA-stimulated spleen cell culture after oral administration to mice. It counts as in vivo, mouse. To be noted: 1 g/kg oral for 1 week, C57/BL6 mice, IL-2 in culture supernatant (FIGS. 1 to 3). On the procedure: as §1
The collected mouse spleen was homogenized in DMEM medium and the homogenate was centrifuged at 4° C. (1,000 rpm, 5 minutes) To this was added ASK lysis buffer and the mixture was incubated (37° C., 3 minutes) in order to remove erythrocytes, followed by centrifugation (1,000 rpm, 5 minutes). To the spleen cells thus collected was added ConA at a final concentration of 10 μg/ml and cultivated in a microplate. After 15 hours, the culture supernatant was collected for assaying TNF-α, IFN-γ, and IL-2.
as §2

For `CC(=O)c1occc1OC1OC(CO)C(O)C(O)C1O` [substance A, 2-acetyl-3-hydroxyfuran 3-O-α-D-glucopyranoside], in experiment [1], the “cytokine induction ability, macrophage” value is recorded as “high cytokine induction ability”. For the same compound, the cytokine induction ability result in experiment [2] is listed as “considerable cytokine induction ability”.

The record behind these values is patent US7169762B2, “Substance having physiological property, method for producing the same and uses thereof” (Amino Up Chemical Co., Ltd., priority 2001, dated 2007).
